Results published in the NIST ThermoML archive (doi:10.1016/j.jct.2009.06.001).
Numbers after ± are expanded uncertainties. Values belong to the molecule of their own block, whether it stands above or below them.

Columns and labels:
[1] = 298.15 K, 101.33 kPa, Liquid; for speed of sound: Sing-around technique in a fixed-path interferometer; for mass density: Vibrating tube method
[2] = mn = molality of the nth substance listed, in mol/kg; conditions: 298.15 K, 101 kPa, Liquid; for speed of sound: Sing-around technique in a fixed-path interferometer; for mass density: Vibrating tube method

Structure (SMILES): C1CCCCC1 [cyclohexane]
speed of sound [1]: 1255.3 ± 1.8 m/s | mass density [1]: 773.87 ± 1.6 kg/m3

Structure (SMILES): c1ccc(-c2cccc(-c3ccccc3)c2)cc1 [m-terphenyl] + C1CCCCC1
speed of sound ([2]; m1 = 0.0253): 1256.5 ± 1.8 m/s | speed of sound ([2]; m1 = 0.0482): 1257.4 ± 1.8 m/s | speed of sound ([2]; m1 = 0.0693): 1258.2 ± 1.8 m/s | speed of sound ([2]; m1 = 0.0928): 1259.2 ± 1.8 m/s | speed of sound ([2]; m1 = 0.1161): 1260.1 ± 1.8 m/s | mass density ([2]; m1 = 0.0253): 775.15 ± 1.6 kg/m3 | mass density ([2]; m1 = 0.0482): 776.28 ± 1.6 kg/m3 | mass density ([2]; m1 = 0.0693): 777.33 ± 1.6 kg/m3 | mass density ([2]; m1 = 0.0928): 778.48 ± 1.6 kg/m3 | mass density ([2]; m1 = 0.1161): 779.62 ± 1.6 kg/m3

Structure (SMILES): c1ccc(-c2ccccc2-c2ccccc2)cc1 [o-terphenyl] + CCCCCCC
speed of sound ([2]; m1 = 0.0267): 1132.8 ± 1.8 m/s | speed of sound ([2]; m1 = 0.0392): 1133.5 ± 1.8 m/s | speed of sound ([2]; m1 = 0.0544): 1134.1 ± 1.8 m/s | speed of sound ([2]; m1 = 0.0652): 1134.6 ± 1.8 m/s | speed of sound ([2]; m1 = 0.0763): 1135.2 ± 1.8 m/s | mass density ([2]; m1 = 0.0267): 681.11 ± 1.6 kg/m3 | mass density ([2]; m1 = 0.0392): 681.85 ± 1.6 kg/m3 | mass density ([2]; m1 = 0.0544): 682.75 ± 1.6 kg/m3 | mass density ([2]; m1 = 0.0652): 683.4 ± 1.6 kg/m3 | mass density ([2]; m1 = 0.0763): 684.05 ± 1.6 kg/m3

Structure (SMILES): C1CCCCC1 [cyclohexane] + c1ccccc1
speed of sound ([2]; m2 = 0.162): 1254.7 ± 1.8 m/s | speed of sound ([2]; m2 = 0.3316): 1254.2 ± 1.8 m/s | speed of sound ([2]; m2 = 0.5187): 1253.5 ± 1.8 m/s | speed of sound ([2]; m2 = 0.6616): 1253.2 ± 1.8 m/s | speed of sound ([2]; m2 = 0.8272): 1252.7 ± 1.8 m/s | mass density ([2]; m2 = 0.162): 774.73 ± 1.6 kg/m3 | mass density ([2]; m2 = 0.3316): 775.59 ± 1.6 kg/m3 | mass density ([2]; m2 = 0.5187): 776.54 ± 1.6 kg/m3 | mass density ([2]; m2 = 0.6616): 777.26 ± 1.6 kg/m3 | mass density ([2]; m2 = 0.8272): 778.07 ± 1.6 kg/m3

Structure (SMILES): c1ccc(-c2ccccc2)cc1 [biphenyl] + CCCCCCC
speed of sound ([2]; m1 = 0.0409): 1133 ± 1.8 m/s | speed of sound ([2]; m1 = 0.0772): 1134.4 ± 1.8 m/s | speed of sound ([2]; m1 = 0.113): 1135.6 ± 1.8 m/s | speed of sound ([2]; m1 = 0.1561): 1137 ± 1.8 m/s | speed of sound ([2]; m1 = 0.1949): 1138.3 ± 1.8 m/s | mass density ([2]; m1 = 0.0409): 681.02 ± 1.6 kg/m3 | mass density ([2]; m1 = 0.0772): 682.37 ± 1.6 kg/m3 | mass density ([2]; m1 = 0.113): 683.67 ± 1.6 kg/m3 | mass density ([2]; m1 = 0.1561): 685.21 ± 1.6 kg/m3 | mass density ([2]; m1 = 0.1949): 686.6 ± 1.6 kg/m3

Structure (SMILES): c1ccc(-c2ccccc2)cc1 [biphenyl] + C1CCCCC1
speed of sound ([2]; m1 = 0.0342): 1256 ± 1.8 m/s | speed of sound ([2]; m1 = 0.0676): 1256.7 ± 1.8 m/s | speed of sound ([2]; m1 = 0.1061): 1257.5 ± 1.8 m/s | speed of sound ([2]; m1 = 0.1335): 1258.1 ± 1.8 m/s | speed of sound ([2]; m1 = 0.1732): 1259 ± 1.8 m/s | mass density ([2]; m1 = 0.0342): 774.82 ± 1.6 kg/m3 | mass density ([2]; m1 = 0.0676): 775.74 ± 1.6 kg/m3 | mass density ([2]; m1 = 0.1061): 776.79 ± 1.6 kg/m3 | mass density ([2]; m1 = 0.1335): 777.52 ± 1.6 kg/m3 | mass density ([2]; m1 = 0.1732): 778.61 ± 1.6 kg/m3

Structure (SMILES): c1ccc(-c2ccccc2-c2ccccc2)cc1 [o-terphenyl] + C1CCCCC1
speed of sound ([2]; m1 = 0.0245): 1256.1 ± 1.8 m/s | speed of sound ([2]; m1 = 0.0451): 1256.8 ± 1.8 m/s | speed of sound ([2]; m1 = 0.0688): 1257.5 ± 1.8 m/s | speed of sound ([2]; m1 = 0.093): 1258.4 ± 1.8 m/s | speed of sound ([2]; m1 = 0.1144): 1259 ± 1.8 m/s | mass density ([2]; m1 = 0.0245): 775.07 ± 1.6 kg/m3 | mass density ([2]; m1 = 0.0451): 776.06 ± 1.6 kg/m3 | mass density ([2]; m1 = 0.0688): 777.19 ± 1.6 kg/m3 | mass density ([2]; m1 = 0.093): 778.35 ± 1.6 kg/m3 | mass density ([2]; m1 = 0.1144): 779.36 ± 1.6 kg/m3

Structure (SMILES): c1ccc(-c2cccc(-c3ccccc3)c2)cc1 [m-terphenyl] + CCCCCCC
speed of sound ([2]; m1 = 0.0245): 1133 ± 1.8 m/s | speed of sound ([2]; m1 = 0.04): 1133.8 ± 1.8 m/s | speed of sound ([2]; m1 = 0.0536): 1134.6 ± 1.8 m/s | speed of sound ([2]; m1 = 0.0666): 1135.3 ± 1.8 m/s | speed of sound ([2]; m1 = 0.076): 1135.9 ± 1.8 m/s | mass density ([2]; m1 = 0.0245): 681.04 ± 1.6 kg/m3 | mass density ([2]; m1 = 0.04): 682 ± 1.6 kg/m3 | mass density ([2]; m1 = 0.0536): 682.83 ± 1.6 kg/m3 | mass density ([2]; m1 = 0.0666): 683.63 ± 1.6 kg/m3 | mass density ([2]; m1 = 0.076): 684.21 ± 1.6 kg/m3

The next lines start with the values.

speed of sound ([2]; m1 = 0.0934): 1134.3 ± 1.8 m/s | speed of sound ([2]; m1 = 0.1975): 1137.2 ± 1.8 m/s | speed of sound ([2]; m1 = 0.2708): 1139.1 ± 1.8 m/s | speed of sound ([2]; m1 = 0.3725): 1141.8 ± 1.8 m/s | speed of sound ([2]; m1 = 0.4561): 1144 ± 1.8 m/s | mass density ([2]; m1 = 0.0934): 682.41 ± 1.6 kg/m3 | mass density ([2]; m1 = 0.1975): 685.54 ± 1.6 kg/m3 | mass density ([2]; m1 = 0.2708): 687.7 ± 1.6 kg/m3 | mass density ([2]; m1 = 0.3725): 690.68 ± 1.6 kg/m3 | mass density ([2]; m1 = 0.4561): 693.03 ± 1.6 kg/m3
Structure (SMILES): c1ccc2ccccc2c1 [naphthalene] + CCCCCCC

speed of sound ([2]; m1 = 0.0805): 1256.5 ± 1.8 m/s | speed of sound ([2]; m1 = 0.1659): 1257.8 ± 1.8 m/s | speed of sound ([2]; m1 = 0.2522): 1259.1 ± 1.8 m/s | speed of sound ([2]; m1 = 0.3257): 1260.2 ± 1.8 m/s | speed of sound ([2]; m1 = 0.4055): 1261.5 ± 1.8 m/s | mass density ([2]; m1 = 0.0805): 775.71 ± 1.6 kg/m3 | mass density ([2]; m1 = 0.1659): 777.64 ± 1.6 kg/m3 | mass density ([2]; m1 = 0.2522): 779.56 ± 1.6 kg/m3 | mass density ([2]; m1 = 0.3257): 781.18 ± 1.6 kg/m3 | mass density ([2]; m1 = 0.4055): 782.91 ± 1.6 kg/m3
Structure (SMILES): c1ccc2ccccc2c1 [naphthalene] + C1CCCCC1

speed of sound ([2]; m1 = 0.0343): 1256.4 ± 1.8 m/s | speed of sound ([2]; m1 = 0.0591): 1257.2 ± 1.8 m/s | speed of sound ([2]; m1 = 0.0896): 1258.2 ± 1.8 m/s | speed of sound ([2]; m1 = 0.1162): 1259 ± 1.8 m/s | speed of sound ([2]; m1 = 0.1455): 1259.8 ± 1.8 m/s | mass density ([2]; m1 = 0.0343): 775.27 ± 1.6 kg/m3 | mass density ([2]; m1 = 0.0591): 776.28 ± 1.6 kg/m3 | mass density ([2]; m1 = 0.0896): 777.54 ± 1.6 kg/m3 | mass density ([2]; m1 = 0.1162): 778.63 ± 1.6 kg/m3 | mass density ([2]; m1 = 0.1455): 779.78 ± 1.6 kg/m3
Structure (SMILES): c1ccc2c(c1)ccc1ccccc12 [phenanthrene] + C1CCCCC1

speed of sound ([2]; m1 = 0.1915): 1132.3 ± 1.8 m/s | speed of sound ([2]; m1 = 0.3783): 1133.2 ± 1.8 m/s | speed of sound ([2]; m1 = 0.5615): 1133.9 ± 1.8 m/s | speed of sound ([2]; m1 = 0.7515): 1134.8 ± 1.8 m/s | speed of sound ([2]; m1 = 0.943): 1135.8 ± 1.8 m/s | mass density ([2]; m1 = 0.1915): 681.6 ± 1.6 kg/m3 | mass density ([2]; m1 = 0.3783): 683.56 ± 1.6 kg/m3 | mass density ([2]; m1 = 0.5615): 685.43 ± 1.6 kg/m3 | mass density ([2]; m1 = 0.7515): 687.34 ± 1.6 kg/m3 | mass density ([2]; m1 = 0.943): 689.24 ± 1.6 kg/m3
Structure (SMILES): c1ccccc1 [benzene] + CCCCCCC

speed of sound [1]: 1131.4 ± 1.8 m/s | mass density [1]: 679.55 ± 1.6 kg/m3
Structure (SMILES): CCCCCCC [heptane]

speed of sound ([2]; m1 = 0.0349): 1133.2 ± 1.8 m/s | speed of sound ([2]; m1 = 0.0513): 1134 ± 1.8 m/s | speed of sound ([2]; m1 = 0.0739): 1135 ± 1.8 m/s | speed of sound ([2]; m1 = 0.0812): 1135.3 ± 1.8 m/s | speed of sound ([2]; m1 = 0.1012): 1136.2 ± 1.8 m/s | mass density ([2]; m1 = 0.0349): 681.3 ± 1.6 kg/m3 | mass density ([2]; m1 = 0.0513): 682.12 ± 1.6 kg/m3 | mass density ([2]; m1 = 0.0739): 683.26 ± 1.6 kg/m3 | mass density ([2]; m1 = 0.0812): 683.59 ± 1.6 kg/m3 | mass density ([2]; m1 = 0.1012): 684.63 ± 1.6 kg/m3
Structure (SMILES): c1ccc2c(c1)ccc1ccccc12 [phenanthrene] + CCCCCCC
